The text below walks through data of patent US8835476B2, “Synthesis of novel antimicrobials” (priority 2005, dated 2014).

Values after ≈ are worked out from the molar mass of the structure shown. Like-named read-outs stand apart in the source and are kept apart here. Where only a bound is given, the exact number is not on record here.

Assay type in all cases: cell-based
In assay [1] the test system is B. cepacia clinical isolates. The experiment in a line: Broth microdilution MIC, clinical isolate strains (NAUTICA). Conditions: unit assumed. The text has this: (§1) All clinical isolates tested were from The North American Urinary Tract Infection Collaborative Alliance (NAUTICA) which is a UTI surveillance study involving 40 medical centres (30 from the US and 10 from Canada). Each centre submitted up to 50 consecutive outpatient midstream urine isolates. All isolates were deemed significant urinary tract pathogens by individual laboratory criteria and identified to the species level by each laboratory's existing protocol. Isolates were transported to the coordinating laboratory (Health Sciences Centre, Winnipeg, Canada) on charcoal swabs. Only one isolate per patient was accepted. Upon receipt, isolates were cultured by the coordinating laboratory, stocked in skim milk, and stored at −80° C. awaiting reference antibiotic susceptibility testing. Elementary demographic information was also compiled for each isolate. Isolates were selected randomly from the above pool to represent 18 different species of Enterobacteriaceae and non-Enterobacteriaceae. An average of 5 strains of each species were tested for a total of 93 organisms. In addition, 23 reference (ATCC) [both gram negative and gram positive] strains were tested.
(§2) Susceptibilities to the compounds were determined using the National Committee for Clinical Laboratory Standards (NCCLS) M7-A6 broth microdilution method. […] DMSO controls were incorporated into the panel to mimic the quantity of DMSO used in dissolving some of the compounds at the higher concentrations. Each final panel well volume was 100 μl with a bacterial inoculum of 5×10^5 colony forming units (CFU)/ml. Panels were read following 16 to 20 hours of incubation at 35° C. in ambient air. The minimum inhibitory concentration (MIC) was defined as the lowest concentration of antimicrobial inhibiting visible growth. Quality control (QC) was performed using four ATCC QC organisms that were run with every batch set up to insure reproducibility.
In general terms: Broth dilution looks for growth in wells or tubes with falling amounts of substance.

The subject of assay [2] is P. stuartii clinical isolates. The assay is described as above. The note with it: unit assumed.
Description: as §1, §2

Assay [3] relates to S. maltophilia clinical isolates. The description is as above. Conditions: unit assumed.
Description: as §1, §2

In assay [4] the test system is P. retgerri clinical isolates. The description is as above. Conditions: unit assumed.
Description: as §1, §2

Assay [5] concerns A. baumanii clinical isolates. Described as above. Conditions: unit assumed.
Description: as §1, §2

Assay [6] relates to E. aerogenes clinical isolates. The description is as above. Conditions: unit assumed.
Description: as §1, §2

The test system of assay [7] is E. coli clinical isolates. Described as above. The note with it: unit assumed.
Description: as §1, §2

The test system of assay [8] is Ps. aeruginosa clinical isolates. The assay is described as above. The note with it: unit assumed.
Description: as §1, §2

Assay [9] concerns P. vulgaris clinical isolates. The assay is described as above. Conditions: unit assumed.
Description: as §1, §2

In assay [10] the test system is M. morganii clinical isolates. The description is as above. Conditions: unit assumed.
Description: as §1, §2

Assay [11] relates to P. mirabilis clinical isolates. The assay is described as above. The note with it: unit assumed.
Description: as §1, §2

Assay [12] concerns C. amalonaticus clinical isolates. The assay is described as above. The note with it: unit assumed.
Description: as §1, §2

Assay [13] has as its system K. pneumoniae clinical isolates. The description is as above. Conditions: unit assumed.
Description: as §1, §2

The test system of assay [14] is S. liquifaciens clinical isolates. The assay is described as above. The note with it: unit assumed.
Description: as §1, §2

Assay [15] relates to C. freundii clinical isolates. The description is as above. The note with it: in µg/mL (unit assumed).
Description: as §1, §2

For assay [16], the system named is S. marcescens clinical isolates. Described as above. Conditions: unit assumed.
Description: as §1, §2

Assay [17] concerns K. oxytoca clinical isolates. The description is as above. Conditions: unit assumed.
Description: as §1, §2

Assay [18] has as its system E. cloacae clinical isolates. Described as above. The note with it: unit assumed.
Description: as §1, §2

Assay [19] deals with C. koseril clinical isolates. Described as above. The note with it: unit assumed.
Description: as §1, §2

The next assay concerns P. rettgeri CAP. The assay can be described thus: Broth microdilution MIC, reference strains. The note with it: Providencia rettgeri, read-out: MIC (growth inhibition, microdilution method).
Description: as §1, §2

[20] abbreviates: Table 4B, each table row is one clinical isolate.
[21] abbreviates: clinical isolates, one table line per isolate.

In general, MIC refers to the smallest concentration in the dilution series that meets the test's criterion for growth inhibition. Take `O=C(O)c1sc(-c2ccc(F)cc2)cc1-c1nnn[nH]1` [DNM-141, 5-(4-Fluoro-phenyl)-3-(1H-tetrazol-5-yl)-thiophene-2-carboxylic acid]: the MIC, B. CEPACIA in [1] (setting [20]) was more than 16 µg/mL. The molecule also came in with an MIC, P. STUARTII in assay [2] (setting [20]) of more than 16 µg/mL. The same molecule registered an MIC, S. MALTOPHILIA in assay [3] (setting [20]) of more than 16 µg/mL. Besides, in assay [4] (setting [20]), the MIC, P. RETTGERI is more than 16 µg/mL. This molecule had an MIC, A. BAUMANII in assay [5] (setting [20]) of more than 16 µg/mL. For the same molecule, in assay [6] (setting [20]), the MIC, E. AEROGENES was more than 16 µg/mL. Moreover, in assay [7] (setting [20]), the MIC, E. COLI is more than 16 µg/mL. The MIC, PS. AER in [8] (setting [20]) is more than 16 µg/mL. Also, the MIC, P. VULGARIS in [9] (setting [20]) was more than 16 µg/mL. This molecule also came in with an MIC, M. MORGANII in assay [10] (setting [20]) of more than 16 µg/mL. The same molecule had an MIC, P. MIRABILIS in assay [11] (setting [20]) of more than 16 µg/mL. The molecule also yielded an MIC, C. AMALONATICUS in assay [12] (setting [20]) of more than 16 µg/mL. In assay [13] (setting [20]), this molecule showed an MIC, K. PNEUMONIAE of more than 16 µg/mL. The MIC, S. LIQUEFACIENS in [14] (setting [20]) was more than 16 µg/mL. The “MIC, C. FREUNDII” value in assay [15] (setting [20]) is reported as more than 16. This molecule returned an MIC, S. MARCESCENS in assay [16] (setting [20]) of more than 16 µg/mL. In addition, the MIC, K. OXYTOCA in [17] (setting [20]) is more than 16 µg/mL. The same molecule had an MIC, E. CLOACAE in assay [18] (setting [20]) of more than 16 µg/mL. In [19] (setting [20]), this molecule returned an MIC, C. KOSERI of more than 16 µg/mL. Further, the MIC with P. rettgeri CAP (P. rettgeri (CAP in Table 1)) is more than 16 µg/mL.

`Fc1ccc(-c2cc(-c3nnn[nH]3)c(-c3ccc(F)cc3)s2)cc1` [DNM-131, 5-(2,5-Bis(4-fluorophenyl)thiophen-3-yl)-1H-tetrazole] gave an MIC, B. CEPACIA in assay [1] (setting [20]) of more than 32 µg/mL. The molecule further displayed an MIC, P. STUARTII in assay [2] (setting [20]) of more than 32 µg/mL. Also, in assay [3] (setting [20]), the MIC, S. MALTOPHILIA is more than 32 µg/mL. The molecule also displayed an MIC, P. RETTGERI in [4] (setting [20]) of more than 32 µg/mL. Besides, in [5] (setting [20]), the MIC, A. BAUMANII is more than 32 µg/mL. The MIC, E. AEROGENES in assay [6] (setting [20]) is more than 32 µg/mL. For the same molecule, the MIC, E. COLI in assay [7] (setting [20]) is more than 32 µg/mL. For the same molecule, the MIC, PS. AER in assay [8] (setting [20]) was more than 32 µg/mL. In [9] (setting [20]), this molecule showed an MIC, P. VULGARIS of more than 32 µg/mL. Besides, in [10] (setting [20]), the MIC, M. MORGANII was more than 32 µg/mL. In [11] (setting [20]), this molecule came in with an MIC, P. MIRABILIS of more than 32 µg/mL. The molecule also returned an MIC, C. AMALONATICUS in [12] (setting [20]) of more than 32 µg/mL. Besides, the MIC, K. PNEUMONIAE in [13] (setting [20]) is more than 32 µg/mL. Further, the MIC, S. LIQUEFACIENS in assay [14] (setting [20]) was more than 32 µg/mL. Also, the “MIC, C. FREUNDII” value in [15] (setting [20]) was more than 32. For the same molecule, the MIC, S. MARCESCENS in assay [16] (setting [20]) is more than 32 µg/mL. This molecule came in with an MIC, K. OXYTOCA in assay [17] (setting [20]) of more than 32 µg/mL. The MIC, E. CLOACAE in assay [18] (setting [20]) was more than 32 µg/mL. The molecule also had an MIC, C. KOSERI in [19] (setting [20]) of more than 32 µg/mL. For the same molecule, the minimum inhibitory concentration (MIC) with P. rettgeri CAP (P. rettgeri (CAP in Table 1)) was more than 32 µg/mL.

`O=C(O)c1cc(-c2nnn[nH]2)c(C(=O)O)s1` [DNM-111, 3-(1H-tetrazol-5-yl)thiophene-2,5-dicarboxylic acid] came in with an MIC, E. AEROGENES in [6] (setting [21]) of 128 µg/mL (≈ 533 µM). Moreover, the MIC, PS. AER in assay [8] (setting [21]) worked out at 128 µg/mL (≈ 533 µM). For the same molecule, the MIC, P. VULGARIS in assay [9] (setting [21]) is 128 µg/mL (≈ 533 µM). The same molecule returned an MIC, M. MORGANII in [10] (setting [21]) of 128 µg/mL (≈ 533 µM). In addition, the MIC, P. MIRABILIS in [11] (setting [21]) was 128 µg/mL (≈ 533 µM). The MIC, C. AMALONATICUS in assay [12] (setting [21]) was 128 µg/mL (≈ 533 µM). In [13] (setting [21]), this molecule came in with an MIC, K. PNEUMONIAE of 128 µg/mL (≈ 533 µM). Further, in assay [14] (setting [21]), the MIC, S. LIQUEFACIENS was 128 µg/mL (≈ 533 µM). In addition, the “MIC, C. FREUNDII” value in [15] (setting [21]) is on record as 128. Besides, the MIC, S. MARCESCENS in assay [16] (setting [21]) came out at 128 µg/mL (≈ 533 µM). Besides, in assay [17] (setting [21]), the MIC, K. OXYTOCA turned out to be 128 µg/mL (≈ 533 µM). Further, the MIC, E. CLOACAE in [18] (setting [21]) is 128 µg/mL (≈ 533 µM). For the same molecule, in assay [19] (setting [21]), the MIC, C. KOSERI was found to be 128 µg/mL (≈ 533 µM). The minimal inhibitory concentration (MIC) with P. rettgeri CAP was determined as 128 µg/mL (≈ 533 µM).

`O=C(O)c1cc(-c2nnn[nH]2)c(-c2ccc(F)cc2)s1` [DNM-121, 5-(4-Fluoro-phenyl)-4-(1H-tetrazol-5-yl)-thiophene-2-carboxylic acid]: the MIC, B. CEPACIA in assay [1] (setting [21]) turned out to be 64 µg/mL (≈ 220 µM). Further, the MIC, P. STUARTII in assay [2] (setting [21]) worked out at 64 µg/mL (≈ 220 µM). In addition, the MIC, S. MALTOPHILIA in [3] (setting [21]) worked out at 64 µg/mL (≈ 220 µM). For the same molecule, the MIC, P. RETTGERI in assay [4] (setting [21]) is 64 µg/mL (≈ 220 µM). In assay [5] (setting [21]), the MIC, A. BAUMANII worked out at 64 µg/mL (≈ 220 µM). Also, in assay [6] (setting [21]), the MIC, E. AEROGENES was 64 µg/mL (≈ 220 µM). Moreover, in assay [7] (setting [21]), the MIC, E. COLI was found to be 64 µg/mL (≈ 220 µM). Further, the MIC, P. VULGARIS in [9] (setting [21]) was 64 µg/mL (≈ 220 µM). This molecule also had an MIC, M. MORGANII in assay [10] (setting [21]) of 64 µg/mL (≈ 220 µM). Besides, the MIC, P. MIRABILIS in assay [11] (setting [21]) is 64 µg/mL (≈ 220 µM). This molecule also registered an MIC, C. AMALONATICUS in assay [12] (setting [21]) of 64 µg/mL (≈ 220 µM). Further, in assay [13] (setting [21]), the MIC, K. PNEUMONIAE was found to be 64 µg/mL (≈ 220 µM). In [14] (setting [21]), the MIC, S. LIQUEFACIENS came to 64 µg/mL (≈ 220 µM). The “MIC, C. FREUNDII” value in assay [15] (setting [21]) is 64. The same molecule gave an MIC, S. MARCESCENS in assay [16] (setting [21]) of 64 µg/mL (≈ 220 µM). For the same molecule, the MIC, K. OXYTOCA in assay [17] (setting [21]) is 64 µg/mL (≈ 220 µM). The molecule also returned an MIC, E. CLOACAE in assay [18] (setting [21]) of 64 µg/mL (≈ 220 µM). Further, the MIC, C. KOSERI in assay [19] (setting [21]) was found to be 64 µg/mL (≈ 220 µM). Moreover, in the assay with P. rettgeri CAP (P. rettgeri (CAP in Table 1)), the minimal inhibitory concentration (MIC) turned out to be 64 µg/mL (≈ 220 µM).
